Source: patent publication US12233053B2, “Adenosine A3 receptor antagonists for treating aging skin and wounds” (ORADIN PHARMACEUTICAL LTD., priority 2021, dated 2025)

Columns and labels:
HaCaT keratinocyte cells [1] = conditions: 10 μM or lower concentrations, 24 hours
Procedure: (§2) Cell viability was then measured using Alamar blue (AB) assay according to the manufacturer's instructions. Briefly, the cells were rinsed with PBS, and 0.2 ml of an AB solution (10% (v/v) of AB dye in DMEM) were added to each well. After incubation of 3 hours, AB fluorescence was quantified at the excitation and emission wavelengths of 540 and 595 nm, respectively, using a Tecan Genios microplate reader. The results are given as mean±SD. Statistical significance was determined by Student T-Test.

B16-F1 melanocytes [2] = experiment: Scratch assay (gap size, cell migration), melanocytes; type: cell-based; conditions: 10 μM, 24 hours, B16-F1, FIG. 4E
Procedure: FIGS. 4A-E show bar graphs of the gap size in a scratch assay of different cell types in culture. FIGS. 4A-B show bar graphs of the gap size of HaCaT keratinocyte cells (A) and 3T3 fibroblast cells (B) 24 hours after treatment with increasing concentrations of MRS-1523 in the scratch assay. FIGS. 4C-E show bar graphs of the gap size of HaCAT cells (FIG. 4C), 3T3 fibroblasts (FIG. 4D), and B16-F1 melanocytes (FIG. 4E) after 24-hour treatment with 10 μM MRS-1523 in the scratch assay. *p<0.05, **p<0.01 by Student T-test.
(§1) Keratinocyte HaCaT cells or 3T3 fibroblast cells (10^6 cells) were grown in 35 mm petri dishes in DMEM containing 10% FCS overnight. Thereafter, the cell cultures were scratched using 20 μl pipet tip in the middle of the culture plate, the cells were washed three times, and then MRS-1523 (at concentrations of 10 nM to 10 μM in DMEM containing 10% FCS) was added to each scratched plate and incubated with the cells for 24 hours. The gap size in plates of MRS-1523 treated cells was compared to the gap size in plates of control cells which were scratched and incubated for 24 hours in DMEM containing 10% FCS in the absence of MRS-1523. The results are presented as mean±SD. Statistical significance was determined by Student T-test.

3T3 fibroblast cells [3] = tested on: 3T3 fibroblast cells
Procedure: as §2

3T3 fibroblast cells [4] = experiment: Scratch assay (gap size, cell migration), fibroblasts; type: cell-based; conditions: 24 hours
Procedure: as §1

B16-F1 melanocytes [5] = tested on: B16-F1 melanocytes
Procedure: HaCaT cells or 3T3 cells (2×10^4) were incubated in 96-well Elisa plates in DMEM containing 10% fetal calf serum (FCS) in the presence of increasing concentrations of MRS-1523 for 24 hours. Cell viability was then measured using Alamar blue (AB) assay according to the manufacturer's instructions. Briefly, the cells were rinsed with PBS, and 0.2 ml of an AB solution (10% (v/v) of AB dye in DMEM) were added to each well. After incubation of 3 hours, AB fluorescence was quantified at the excitation and emission wavelengths of 540 and 595 nm, respectively, using a Tecan Genios microplate reader. The results are given as mean±SD. Statistical significance was determined by Student T-Test.

HaCaT cells = experiment: Differentiation markers PAR-2 and Filaggrin in keratinocytes (immunostaining); type: cell-based, human; conditions: 10 μM, 24 hours
Procedure: HaCaT cells were grown in DMEM containing 10% FCS for 24 hours. The cells were then treated with 10 μM MRS-1523 for 24 hours, washed with PBS, and fixed with 4% paraformaldehyde for 1 hour. Fixed cells were washed and incubated with the following primary antibodies (Sigma): anti-PAR-2 (Clone SAM11 produced in mouse, reactive to mouse and human) followed by secondary antibodies, anti-mouse antibodies conjugated to FITC, or anti-Filaggrin (FLG; produced in rabbit) followed by secondary antibodies, anti-rabbit antibodies conjugated to Alexa Fluor® 488.

3T3 fibroblast cells [6] = experiment: Collagen-1 and F-actin expression in fibroblasts (confocal fluorescence); type: cell-based; conditions: 10 μM, 24 hours
Procedure: The effect of MRS-1523 on collagen level in fibroblasts in culture was next examined. 3T3-fibroblast cells were grown in DMEM containing 10% FCS for 24 hours, and then were treated with 10 μM MRS-1523 for additional 24 hours. Thereafter, the presence of collagen or F-actin was evaluated as follows: the cells were incubated with rabbit anti-collagen-1 antibodies, and then with Alexa Fluor® 488-conjugated goat anti-rabbit antibodies to detect collagen-1 (green staining). Detection of F-actin was performed by F-actin-Phalloidin-staining (red staining). Cell nuclei were stained with 4′,6-diamidino-2-phenylindole (DAPI; blue staining).

skin explants = experiment: Fibroblast and collagen staining of skin explants (H&E, Fontana-Masson); design: species or system human; conditions: 10 μM, 12 days
Procedure: Skin explants were treated with MRS-1523 (10 μM) for 12 days. Thereafter, the skin explants were stained with hematoxylin and eosin (H&E; FIGS. 5A and 5C) or with Fontana-Masson (FIGS. 5B and 5D).

HaCaT keratinocyte cells [7] = experiment: Scratch assay (gap size, cell migration), keratinocytes; type: cell-based, human; conditions: 24 hours
Procedure: as §1

CCCOC(=O)c1c(-c2ccccc2)nc(CC)c(C(=O)SCC)c1CCC [MRS-1523, 3-propyl-6-ethyl-5[(ethylthio)carbonyl]-2-phenyl-4-propyl-3-pyridine carboxylate]
stimulation of keratinocyte proliferation (HaCaT keratinocyte cells [1]): 8-16% | melanocytes migration (B16-F1 melanocytes [2]): attenuated | toxic effect on fibroblasts (3T3 fibroblast cells [3]): did not induce any toxic effect | fibroblast proliferation (3T3 fibroblast cells [3]; 10 μM, 24 hours, 3T3): slight but significant increase | gap size vs control cells (cell migration) (3T3 fibroblast cells [4]; 0.01 μM-10 μM, 3T3, FIG. 4B): significant reduction in the gap size | cell migration (3T3 fibroblast cells [4]; 10 μM, 3T3, FIG. 4D): significantly stimulated | toxic effect on melanocyte cells (B16-F1 melanocytes [5]): did not induce any toxic effect | melanocyte proliferation (B16-F1 melanocytes [5]; 24 hours, B16-F1): promoted their proliferation | expression of Filaggrin (FLG) vs control untreated cells (HaCaT cells): decrease | expression of PAR-2 vs control untreated cells (HaCaT cells): decrease | expression of F-actin vs control cells (3T3 fibroblast cells [6]): not increased | expression of collagen-1 vs control untreated fibroblasts (3T3 fibroblast cells [6]): increased expression | collagen levels in the dermis vs untreated skin explants (skin explants): increase | fibroblast levels in the dermis vs untreated skin explants (skin explants): increase | gap size vs control cells (cell migration) (HaCaT keratinocyte cells [7]; 0.01 μM-10 μM, FIG. 4A): significant reduction in the gap size | cell migration (HaCaT keratinocyte cells [7]; 10 μM, FIG. 4C): significantly stimulated
